From patent US20100111838A1, “BRAIN-LOCALIZING POLYPEPTIDES COMPRISING A MULTIVALENT BINDING MOIETY AND IMPROVED METABOLIC STABILITY” (Proteus Sciences Co., Ltd, priority 2007, published 2010)
Where a SMILES comes first, the peptide text is derived from it. The star is where a group is joined. 5FAM = O=C1OC2(c3ccc(O)cc3Oc3cc(O)ccc32)c2ccc(C(=O)*)cc21

Experiment: In vitro metabolism test of fluorescein-labeled peptides in liver extract solution (HPLC)
Format: in vitro ADME
Conditions: liver extract solution (supernatant of liver homogenate), mouse liver extract solution, 37° C., read-out: residual ratio of unchanged peptide in liver extract solution
Procedure: To compare the degree of improved stability observed in [C]K004K, an experiment system that uses a fluorescent pigment as a tracer instead of an isotope labeling for in vitro evaluation using a mouse liver homogenate was produced.
Add two parts of Hanks' solution to one part of mouse liver, and homogenize ↓ Centrifuge and collect supernatant ↓ Add five parts of Hanks' solution (liver extract solution) ↓ Add 5 μL of peptide to 245 μL of liver extract solution ↓
↓ Take 50 μL of sample 0, 5, 30, 60, and 120 minutes after incubation ↓ Add 200 μL, of 70% ethanol (pre-cooled at −30° C.) and then vortex ↓ Add 500 μL of chloroform (pre-cooled at −30° C.) and then vigorously vortex ↓ Centrifuge and collect supernatant ↓ Add an equivalent amount of DMF and then vortex ↓ Centrifuge and collect supernatant ↓ HPLC analysis using Co-sense
[C](Flu)-C004C: A peptide cyclized by adding C to both ends of the 004 sequence and forming a disulfide bond between them was labeled with fluorescein at its N-terminus. [C](Flu)-K004C: A peptide cyclized by adding K to the N terminus and C to the C terminus of the 004 sequence and forming a peptide bond between the N- and C-termini was labeled with fluorescein at its N terminus. [C](Flu)-K004K: A peptide cyclized by adding K to both ends of the 004 sequence and forming a peptide bond between the N- and C-termini was labeled with fluorescein at its N terminus. […]

Compound	remaining at 5 min (five minutes)	remaining at 1 h (60-minute incubation)
CC(C)C[C@@H]1NC(=O)[C@H](Cc2c[nH]cn2)NC(=O)[C@H](CCCNC(=N)N)NC(=O)[C@H](C(C)C)NC(=O)[C@H](C(C)C)NC(=O)[C@H](CCCCNC(=O)c2ccc3c(c2)C(=O)OC32c3ccc(O)cc3Oc3cc(O)ccc32)NC(=O)[C@H](CS)NC(=O)[C@H](CCC(N)=O)NC(=O)[C@H](CCC(N)=O)NC1=O [[C](Flu)-K004C, reference compound] (cyclo(K(5FAM)VVRHLQQC))	40%	–
CC(C)C[C@@H]1NC(=O)[C@H](Cc2c[nH]cn2)NC(=O)[C@H](CCCNC(=N)N)NC(=O)[C@H](C(C)C)NC(=O)[C@H](C(C)C)NC(=O)[C@H](CCCCNC(=O)c2ccc3c(c2)C(=O)OC32c3ccc(O)cc3Oc3cc(O)ccc32)NC(=O)[C@H](CCCCN)NC(=O)[C@H](CCC(N)=O)NC(=O)[C@H](CCC(N)=O)NC1=O [[C](Flu)-K004K] (cyclo(K(5FAM)VVRHLQQK))	–	~50%
